# In patent US20230406865A1, “CRYSTAL FORM OF FREE BASE OF INHIBITOR CONTAINING BICYCLIC RING DERIVATIVE AND PREPARATION METHOD AND APPLICATION OF CRYSTAL FORM” (SHANGHAI HANSOH BIOMEDICAL CO., LTD., priority 2020, published 2023):
# pIC50: −log10 of the molar value. Where two headings read alike, the source gives them in different places.
# How the values were obtained:
# [1] = Solid stability of crystal form I (HPLC impurities); type: physicochemical; conditions: 14 days
# Method: To investigate the physical and chemical stability of the compound under light 5000 lx, high temperature 60° C., high humidity 92.5% RH, high temperature and high humidity 50° C./75% RH conditions to provide a basis for the storage of the compound.
# […] 5000 lx, high temperature 60° C., high humidity 92.5% RH, high temperature and high humidity 50° C./75% RH, and the content was determined by HPLC with external standard method, and the changes of the related substances were calculated by the area normalization method for chromatographic peak.
# [2] = Hygroscopicity (DVS) of crystal form I; type: physicochemical
# Method: The crystal form I of the free base of the compound was placed in the saturated water vapor at the […] relative humidity to make the compound reach dynamic equilibrium with the water vapor, and the percentage of hygroscopic weight gain of the compound was calculated after equilibrium.
# [3] = Thermodynamic solubility in different media at 37° C.; type: physicochemical; conditions: thermodynamic from solid, read-out: Solubility of crystal form I
# Method: To compare the solubility of the crystal form I of the free base in pH 1-8 USP buffer, artificial simulated gastric fluid (FaSSGF), fasting artificial simulated intestinal fluid (FaSSIF), non-fasting artificial simulated intestinal fluid (FeSSIF) and pure water and other medium to provide a basis for the assessment of druggablitity.
# About 1 mg of the crystal form I of the free base was mixed and suspended in different mediums for 4 hours.
# RET M918T = molecular target: T1, RET M918T (Homo sapiens, UniProt P07949, M918T); assay: HTRF kinase activity inhibition, RET M918T; type: biochemical; conditions: ATP at Km
# T1 construct: purchased Carna 08-508
# Text: (§1) 2.2 Experimental Reagents: • RET enzyme was purchased from Carna Company, and the article number was 08-159; • RET M918T enzyme was purchased from Carna Company, and the article number was 08-508; • KIF5B-RET was purchased from SignalChem Company, the article number was R02-19FG-05; • CCDC6-RET was purchased from SignalChem Company, the article number was R02-19BG-05; • RET V804M enzyme was purchased from Thermofisher Company, and the article number was PV6223; • RET V804L enzyme was purchased from Thermofisher Company, and the article number was PV4397; • HTRF KinEASE-TK kit was purchased from Cisbio Company, and the article number was 62TK0PEC; • ATP was purchased from Thermofisher Company, and the article number was PV3227; • 384-well plate was purchased from PerkinElmer Company, and the article number was 6007290.
# (§2) In this experiment, a homogeneous time-resolved fluorescence (HTRF) method was used for the detection of compounds on RET kinase activity.
# CCDC6-RET = molecular target: T2, CCDC6-RET (Homo sapiens, UniProt P07949); assay: HTRF kinase activity inhibition, CCDC6-RET; type: biochemical; conditions: ATP at Km
# T2 construct: purchased SignalChem R02-19BG-05; the other entry of the earlier key: CCDC6 (Q16204, Coiled-coil domain-containing protein 6)
# T2 sequence (P07949 with tags, fused parts or gaps): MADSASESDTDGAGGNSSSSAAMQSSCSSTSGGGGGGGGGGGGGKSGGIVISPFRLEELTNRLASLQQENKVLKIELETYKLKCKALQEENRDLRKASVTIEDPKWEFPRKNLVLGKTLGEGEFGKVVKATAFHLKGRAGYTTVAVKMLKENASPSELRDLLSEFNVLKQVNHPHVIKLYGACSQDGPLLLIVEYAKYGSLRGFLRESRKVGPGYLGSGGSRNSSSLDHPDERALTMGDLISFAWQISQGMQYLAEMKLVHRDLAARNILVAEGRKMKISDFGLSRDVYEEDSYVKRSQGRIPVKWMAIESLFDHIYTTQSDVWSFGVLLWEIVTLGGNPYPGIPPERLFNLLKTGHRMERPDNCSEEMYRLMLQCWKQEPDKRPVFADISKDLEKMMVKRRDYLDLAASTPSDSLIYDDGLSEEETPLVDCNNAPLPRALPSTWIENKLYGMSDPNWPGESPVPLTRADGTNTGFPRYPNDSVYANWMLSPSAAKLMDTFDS
# Text: as §1, §2
# KIF5B-RET = molecular target: T3, KIF5B-RET (Homo sapiens, UniProt P07949); assay: HTRF kinase activity inhibition, KIF5B-RET; type: biochemical; conditions: ATP at Km
# T3 construct: purchased SignalChem R02-19FG-05; the other entry of the earlier key: KIF5B (P33176, Kinesin-1 heavy chain)
# T3 sequence (P07949 with tags, fused parts or gaps): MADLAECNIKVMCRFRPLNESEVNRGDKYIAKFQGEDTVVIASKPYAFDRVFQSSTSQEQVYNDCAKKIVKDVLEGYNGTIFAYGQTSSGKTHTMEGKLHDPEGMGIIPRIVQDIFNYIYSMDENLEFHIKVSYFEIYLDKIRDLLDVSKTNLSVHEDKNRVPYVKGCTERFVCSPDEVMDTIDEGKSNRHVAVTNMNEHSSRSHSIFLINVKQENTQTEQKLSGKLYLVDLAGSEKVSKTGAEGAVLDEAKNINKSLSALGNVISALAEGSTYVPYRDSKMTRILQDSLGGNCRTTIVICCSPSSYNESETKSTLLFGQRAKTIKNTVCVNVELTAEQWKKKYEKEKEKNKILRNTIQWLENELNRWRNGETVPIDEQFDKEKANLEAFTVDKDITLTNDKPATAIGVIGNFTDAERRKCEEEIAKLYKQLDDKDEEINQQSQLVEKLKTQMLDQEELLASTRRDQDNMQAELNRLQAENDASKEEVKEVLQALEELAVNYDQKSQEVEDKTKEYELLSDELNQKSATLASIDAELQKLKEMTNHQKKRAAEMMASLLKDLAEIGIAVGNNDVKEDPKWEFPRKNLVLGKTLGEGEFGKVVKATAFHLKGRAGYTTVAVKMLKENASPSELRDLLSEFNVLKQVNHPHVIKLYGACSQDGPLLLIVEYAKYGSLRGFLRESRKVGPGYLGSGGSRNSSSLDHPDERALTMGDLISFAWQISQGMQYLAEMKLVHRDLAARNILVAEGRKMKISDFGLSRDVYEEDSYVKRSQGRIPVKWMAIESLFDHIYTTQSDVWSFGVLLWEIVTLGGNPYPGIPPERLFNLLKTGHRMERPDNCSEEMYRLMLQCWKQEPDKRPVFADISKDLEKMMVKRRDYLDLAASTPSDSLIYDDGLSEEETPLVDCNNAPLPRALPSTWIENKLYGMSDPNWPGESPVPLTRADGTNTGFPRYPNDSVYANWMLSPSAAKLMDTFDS
# Text: as §1, §2
# RET V804M = molecular target: T4, RET V804M (Homo sapiens, UniProt P07949, V804M); assay: HTRF kinase activity inhibition, RET V804M; type: biochemical; conditions: ATP at Km
# T4 construct: purchased Thermofisher PV6223
# Text: as §1, §2
# RET V804L = molecular target: T5, RET V804L (Homo sapiens, UniProt P07949, V804L); assay: HTRF kinase activity inhibition, RET V804L; type: biochemical; conditions: ATP at Km
# T5 construct: purchased Thermofisher PV4397
# Text: as §1, §2
# [4] = High temperature and high humidity/50° C./75% RH
# T5 sequence (P07949 29-1114 V804L): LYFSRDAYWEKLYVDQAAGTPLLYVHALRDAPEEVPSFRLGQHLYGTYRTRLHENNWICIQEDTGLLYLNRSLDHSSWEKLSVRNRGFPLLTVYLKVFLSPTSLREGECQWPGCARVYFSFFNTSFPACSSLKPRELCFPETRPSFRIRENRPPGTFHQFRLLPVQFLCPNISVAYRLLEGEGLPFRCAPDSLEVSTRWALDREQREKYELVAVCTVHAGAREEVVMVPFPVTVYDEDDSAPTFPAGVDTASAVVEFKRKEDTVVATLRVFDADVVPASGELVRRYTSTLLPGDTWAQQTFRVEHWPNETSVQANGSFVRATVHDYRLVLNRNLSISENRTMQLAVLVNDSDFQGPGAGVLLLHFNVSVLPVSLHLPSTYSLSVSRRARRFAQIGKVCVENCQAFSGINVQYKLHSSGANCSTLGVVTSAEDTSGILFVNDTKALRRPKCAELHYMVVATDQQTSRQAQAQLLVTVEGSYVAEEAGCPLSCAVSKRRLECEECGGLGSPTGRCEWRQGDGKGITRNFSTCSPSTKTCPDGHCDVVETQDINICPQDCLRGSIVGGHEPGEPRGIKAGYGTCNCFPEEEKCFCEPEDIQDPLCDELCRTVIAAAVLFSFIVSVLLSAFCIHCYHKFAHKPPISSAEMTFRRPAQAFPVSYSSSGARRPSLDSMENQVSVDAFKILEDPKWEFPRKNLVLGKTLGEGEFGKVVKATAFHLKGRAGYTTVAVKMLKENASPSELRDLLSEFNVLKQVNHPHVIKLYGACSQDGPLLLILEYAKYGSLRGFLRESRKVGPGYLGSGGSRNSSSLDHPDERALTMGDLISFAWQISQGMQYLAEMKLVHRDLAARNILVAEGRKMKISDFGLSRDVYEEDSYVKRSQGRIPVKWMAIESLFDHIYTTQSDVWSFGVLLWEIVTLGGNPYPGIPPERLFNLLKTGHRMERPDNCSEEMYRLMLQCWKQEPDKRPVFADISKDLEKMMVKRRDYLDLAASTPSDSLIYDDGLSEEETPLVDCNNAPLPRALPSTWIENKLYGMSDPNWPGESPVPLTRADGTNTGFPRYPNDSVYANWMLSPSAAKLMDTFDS
# T4 sequence (P07949 29-1114 V804M): as the sequence (P07949 29-1114 V804L) above, with L776M counted along it
# T1 sequence (P07949 29-1114 M918T): as the sequence (P07949 29-1114 V804L) above, with L776V, M890T counted along it
smiles,measurement,setting,value
"C#C[C@@](C)(O)COc1cc(-c2ccc(N3CC4CC(C3)N4Cc3ccc(OC)nc3)nc2)c2c(C#N)cnn2c1 [crystal form I, 6-(((R)-2-hydroxy-2-methylbut-3-yn-1-yl)oxy)-4-(6-(6-((6-methoxypyridin-3-yl)methyl)-3,6-diazabicyclo[3.1.1]heptan-3-yl)pyridin-3-yl)pyrazolo[1,5-a]pyridine-3-carbonitrile]",Increase of total impurities %,[1]; High humidity/92.5% RH,<0.02%
same,Maximum increase of single impurity %,[1]; High humidity/92.5% RH,<0.02%
same,Increase of total impurities %,[1]; [4],<0.02%
same,Maximum increase of single impurity %,[1]; [4],0.11%
same,Increase of total impurities %,[1]; High temperature/60° C.,<0.02%
same,Maximum increase of single impurity %,[1]; High temperature/60° C.,0.06%
same,Increase of total impurities %,[1]; Light/5000 lx,<0.02%
same,Maximum increase of single impurity %,[1]; Light/5000 lx,0.18%
same,hygroscopic weight gain,"[2]; RH80%, 25° C.",about 0.43%
same,hygroscopicity,"[2]; RH80%, 25° C.",slightly hygroscopicity
same,XRPD pattern / crystal form after moisture absorption and desorption,[2]; two cycles at 0-95% RH,the crystal form has not transformed
same,solubility at 4 h,"[3]; FaSSGF (artificial simulated gastric fluid), fassgf or other biorelevant, FaSSGF, 37° C.",> 2000 µg/mL
same,solubility at 4 h,"[3]; FaSSIF (fasting artificial simulated intestinal fluid), FaSSIF, 37° C.",1 µg/mL
same,solubility at 4 h,"[3]; FeSSIF (non-fasting artificial simulated intestinal fluid), FeSSIF, 37° C.",90 µg/mL
same,solubility at 4 h,"[3]; USP buffer pH 1, simulated gastric fluid, pH 1, 37° C.",> 2000 µg/mL
same,solubility at 4 h,"[3]; USP buffer pH 2, simulated gastric fluid, pH 2, 37° C.",> 2000 µg/mL
same,solubility at 4 h,"[3]; USP buffer pH 3, aqueous buffer, pH 3, 37° C.",710 µg/mL
same,solubility at 4 h,"[3]; USP buffer pH 4, aqueous buffer, pH 4, 37° C.",370 µg/mL
same,solubility at 4 h,"[3]; USP buffer pH 5, aqueous buffer, pH 5, 37° C.",20 µg/mL
same,solubility at 4 h,"[3]; USP buffer pH 6, aqueous buffer, pH 6, 37° C.",1 µg/mL
"CC1(NC(=O)c2ncccc2Cl)CCN(c2ccc(-c3cc(C#CC4(O)COC4)cn4ncc(C#N)c34)cn2)CC1 [Embodiment 97, 3-Chloro-N-(1-(5-(3-cyano-6-((3-hydroxyoxetan-3-yl)ethynyl)pyrazolo[1,5-a]pyridin-4-yl)pyridin-2-yl)-4-methylpiperidin-4-yl)picolinamide]",pIC50,RET M918T,9.43
same,pIC50,CCDC6-RET,8.76
same,pIC50,KIF5B-RET,9.30
same,pIC50,RET V804M,8.96
same,pIC50,RET V804L,9.55
